Our source for the T/C values is PubChem BioAssay AID330 (DTP/NCI, 2004).

The assay relates to P388 leukemia ip, CD2F1 mice, survival T/C. In words: NCI In Vivo Anticancer Drug Screen. Data for tumor model P388 Leukemia (intraperitoneal) in CD2F1 (CDF1) mice. Particulars: endpoint: median survival time, higher = longer survival. The method in brief: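 Mice carrying the transplanted tumor received test compound or vehicle. Survival was recorded in each group, and the value is the treated-group measurement divided by that of the vehicle-treated control group.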

Where [1] appears, read: dose: 50.0 mg/kg/injection, schedule: Q01DX009 (ip), vehicle: saline with Tween-80.
Where [2] appears, read: dose: 100.0 mg/kg/injection, schedule: Q01DX009 (ip), vehicle: saline with Tween-80.
[3] abbreviates: dose: 200.0 mg/kg/injection, schedule: Q01DX009 (ip), vehicle: saline with Tween-80.
Setting [4] is: dose: 50.0 mg/kg/injection, schedule: Q01DX009 (ip), vehicle: Klucel (hydroxypropylcellulose) (HPC).
Where [5] appears, read: dose: 100.0 mg/kg/injection, schedule: Q01DX009 (ip), vehicle: Klucel (hydroxypropylcellulose) (HPC).
Setting [6] is: dose: 200.0 mg/kg/injection, schedule: Q01DX009 (ip), vehicle: Klucel (hydroxypropylcellulose) (HPC).
The mark [7] stands for this setting: dose: 50.0 mg/kg/injection, schedule: Q01DX005 (ip), vehicle: Klucel (hydroxypropylcellulose) (HPC).
[8] abbreviates: dose: 100.0 mg/kg/injection, schedule: Q01DX005 (ip), vehicle: Klucel (hydroxypropylcellulose) (HPC).
The mark [9] stands for this setting: dose: 200.0 mg/kg/injection, schedule: Q01DX005 (ip), vehicle: Klucel (hydroxypropylcellulose) (HPC).
Setting [10] is: dose: 60.0 mg/kg/injection, schedule: Q01DX005 (ip), vehicle: saline with Tween-80.
[11] abbreviates: dose: 120.0 mg/kg/injection, schedule: Q01DX005 (ip), vehicle: saline with Tween-80.
The mark [12] stands for this setting: dose: 240.0 mg/kg/injection, schedule: Q01DX005 (ip), vehicle: saline with Tween-80.
Setting [13] is: dose: 25.0 mg/kg/injection, schedule: Q01DX001 (ip), vehicle: Klucel (hydroxypropylcellulose) (HPC).
The mark [14] stands for this setting: dose: 25.0 mg/kg/injection, schedule: Q01DX005 (ip), vehicle: Klucel (hydroxypropylcellulose) (HPC).

“And” between values parts separate entries of the source, which are not always exact repeats. Identical values can stand only once. Toxic doses and inconclusive results are not listed.

For the compound `CC(=O)OC1CC2CCC1(/C=C/C(=O)c1ccccc1)C2` (configuration not stated), the T/C under setting [1] is 100 % of control, the T/C under setting [2] was 100 % of control and the T/C under setting [3] was 113 % of control.
As for `CSc1nc2ccc(N=Cc3ccccc3O)cc2s1`, the T/C runs as follows: under setting [4], 91 % of control; under setting [5], 89 % of control; under setting [6], 100 % of control.
As to `COC(=O)c1cc2cc3c(c(O)c2c(=O)o1)OC1(Cc2c(O)c4c(c(O)c2O1)C(=O)C(OC)CC4=O)CC3O` (configuration not stated), the T/C was 93 % of control (dose: 12.5 mg/kg/injection, schedule: Q01DX009 (ip), vehicle: saline with Tween-80); 100 % of control (dose: 25.0 mg/kg/injection, schedule: Q01DX009 (ip), vehicle: saline with Tween-80); 116 % of control under setting [1].
On to `O=NNc1ccc(Oc2ccccc2)cn1`, for which, where the note is “dose: 6.25 mg/kg/injection, schedule: Q01DX009 (ip), vehicle: saline”, the T/C is 156 % of control.
Take `COc1c(Cl)ncnc1Cl`: the T/C (dose: 25.0 mg/kg/injection, schedule: Q01DX009 (ip), vehicle: Klucel (hydroxypropylcellulose) (HPC)) was 100 % of control; the T/C under setting [4] was 103 % of control; the T/C under setting [5] was 110 % of control; the T/C under setting [6] is 98 % of control.
Turning to `COc1ccc(C2CCCC(CCc3ccc(O)cc3)O2)cc1` (configuration not stated), the T/C under setting [7] is 100 % of control, the T/C under setting [8] is 103 % of control and the T/C under setting [9] was 100 % of control.
`COc1ccc(Cc2noc(=O)[nH]2)cc1`: the T/C is, setting by setting: under setting [1], 104 % of control; under setting [2], 104 % of control; under setting [3], 106 % of control.
In the case of `NC(=O)N/N=c1/oc2ccccc2cc1C(N)=O`, the T/C reads like this: (dose: 100.0 mg/kg/injection, schedule: Q04DX002 (ip), vehicle: saline) 98 % of control; (dose: 200.0 mg/kg/injection, schedule: Q04DX002 (ip), vehicle: saline) 98 % of control; (dose: 400.0 mg/kg/injection, schedule: Q04DX002 (ip), vehicle: saline) 96 % of control.
As for `O=C(NCCNc1ccccc1)C12CC3CC(CC(C3)C1)C2`, the T/C by setting is: under setting [7], 100 % of control; under setting [8], 95 % of control; under setting [9], 95 % of control.
As to `Cc1ccc(Br)cc1CCO`, the T/C under setting [7] was 98 % of control and 97 % of control; the T/C under setting [8] is 99 % of control and 100 % of control; the T/C under setting [9] is 100 % of control and 120 % of control.
Take `COc1ccc(-c2cc3ccccc3c(=O)n2Cc2ccccc2)cc1`: the T/C is 100 % of control under setting [10], 103 % of control under setting [11] and 94 % of control under setting [12].
For the compound `C=CCN(C=O)CC(OCC)OCC`, the T/C is 100 % of control (dose: 25.0 mg/kg/injection, schedule: Q01DX005 (ip), vehicle: saline with Tween-80); 97 % of control (dose: 50.0 mg/kg/injection, schedule: Q01DX005 (ip), vehicle: saline with Tween-80); 99 % of control (dose: 100.0 mg/kg/injection, schedule: Q01DX005 (ip), vehicle: saline with Tween-80).
With `CC(C)OC(=S)SCC(=O)c1ccc(Br)cc1`, the T/C was 114 % of control under setting [1], 107 % of control under setting [2] and 106 % of control under setting [3].
For the compound `COc1nc(N)c2ncn(C3CCCO3)c2n1` (configuration not stated), the T/C (dose: 12.5 mg/kg/injection, schedule: Q01DX001 (ip), vehicle: Klucel (hydroxypropylcellulose) (HPC)) is 100 % of control and the T/C under setting [13] was 106 % of control.
In the case of `CCOC(=O)c1ccc(NC(=S)NC(=O)c2ccco2)o1`, the T/C reads like this: under setting [1], 92 % of control; under setting [2], 100 % of control; under setting [3], 92 % of control.
For `CC1CCCC(C)N1CC#CCNC(=O)C1CCC(=O)N1` (configuration not stated), the T/C by setting is: under setting [14], 100 % of control; under setting [7], 102 % of control; under setting [8], 121 % of control.
On to `C1CCC(C2CCCC[N-]2)[N-]C1.[Cl][Ru+2][Cl]` (configuration not stated), for which the T/C was 103 % of control (dose: 7.5 mg/kg/injection, schedule: Q01DX005 (ip), vehicle: saline); 100 % of control (dose: 15.0 mg/kg/injection, schedule: Q01DX005 (ip), vehicle: saline); 103 % of control (dose: 30.0 mg/kg/injection, schedule: Q01DX005 (ip), vehicle: saline).
Turning to `FC(F)Oc1ccccc1`, the T/C by setting is: (dose: 50.0 mg/kg/injection, schedule: Q01DX009 (ip), vehicle: acetone) 105 % of control; under setting [1], 100 % of control and 101 % of control; (dose: 100.0 mg/kg/injection, schedule: Q01DX009 (ip), vehicle: acetone) 113 % of control; under setting [2], 100 % of control and 110 % of control; (dose: 200.0 mg/kg/injection, schedule: Q01DX009 (ip), vehicle: acetone) 110 % of control; under setting [3], 114 % of control.
`CC(C)c1c(O)c(O)c2c(c1O)C(=O)C(O)=C1C(C)(C)CCC[C@@]12C`: the T/C reads like this: (dose: 12.5 mg/kg/injection, schedule: Q01DX005 (ip), vehicle: Klucel (hydroxypropylcellulose) (HPC)) 98 % of control; under setting [14], 94 % of control; under setting [7], 102 % of control; under setting [8], 100 % of control; under setting [9], 109 % of control.
Turning to `CC1(C)OI(O)c2ccccc21`, the T/C was 100 % of control (dose: 100.0 mg/kg/injection, schedule: Q04DX002 (ip), vehicle: Klucel (hydroxypropylcellulose) (HPC)) and 100 % of control (dose: 200.0 mg/kg/injection, schedule: Q04DX002 (ip), vehicle: Klucel (hydroxypropylcellulose) (HPC)).
Consider `O=C(CCl)Nc1ccc2c(c1)C(=O)c1cccn1-2`, for which the T/C runs as follows: under setting [13], 97 % of control; (dose: 25.0 mg/kg/injection, schedule: Q04DX003 (ip), vehicle: Klucel (hydroxypropylcellulose) (HPC)) 92 % of control; (dose: 50.0 mg/kg/injection, schedule: Q01DX001 (ip), vehicle: Klucel (hydroxypropylcellulose) (HPC)) 97 % of control; (dose: 50.0 mg/kg/injection, schedule: Q04DX003 (ip), vehicle: Klucel (hydroxypropylcellulose) (HPC)) 97 % of control; (dose: 100.0 mg/kg/injection, schedule: Q01DX001 (ip), vehicle: Klucel (hydroxypropylcellulose) (HPC)) 96 % of control; (dose: 100.0 mg/kg/injection, schedule: Q04DX003 (ip), vehicle: Klucel (hydroxypropylcellulose) (HPC)) 107 % of control.
Turning to `O/N=C(/C=N/O)SCCSC(/C=N/O)=N/O`, the T/C runs as follows: under setting [7], 110 % of control; under setting [8], 109 % of control; under setting [9], 112 % of control.
For the compound `O=C(CCC(=O)Nc1ccc(Cl)cc1Cl)CC(=O)c1ccco1`, the T/C by setting is: under setting [10], 102 % of control; under setting [11], 105 % of control; under setting [12], 102 % of control.
Consider `NC(=Nc1ccc(Cl)cc1)NN=C(c1ccc(Cl)cc1)c1ccc(Cl)cc1`, for which the T/C is, setting by setting: (dose: 25.0 mg/kg/injection, schedule: Q04DX002 (ip), vehicle: saline with Tween-80) 104 % of control; (dose: 50.0 mg/kg/injection, schedule: Q04DX002 (ip), vehicle: saline with Tween-80) 101 % of control; (dose: 100.0 mg/kg/injection, schedule: Q04DX002 (ip), vehicle: saline with Tween-80) 102 % of control; (dose: 200.0 mg/kg/injection, schedule: Q04DX002 (ip), vehicle: saline with Tween-80) 100 % of control; (dose: 400.0 mg/kg/injection, schedule: Q04DX002 (ip), vehicle: saline with Tween-80) 113 % of control.
As for `Nc1nc(N)c2c(n1)NC(=O)CC2c1ccccc1` (configuration not stated), the T/C is, setting by setting: under setting [10], 97 % of control; under setting [11], 90 % of control; under setting [12], 90 % of control.
Regarding `O=C1OCC2(C(=O)O)C(=O)OCC12` (configuration not stated), the T/C is 94 % of control (dose: 8.0 mg/kg/injection, schedule: Q01DX009 (ip), vehicle: saline with Tween-80); 105 % of control and 108 % of control (dose: 16.0 mg/kg/injection, schedule: Q01DX009 (ip), vehicle: saline with Tween-80); 107 % of control (dose: 32.0 mg/kg/injection, schedule: Q01DX009 (ip), vehicle: saline with Tween-80); 100 % of control and 108 % of control (dose: 64.0 mg/kg/injection, schedule: Q01DX009 (ip), vehicle: saline with Tween-80); 97 % of control (dose: 128.0 mg/kg/injection, schedule: Q01DX009 (ip), vehicle: saline with Tween-80).
